{
  "source": "PubChem BioAssay (NCI)",
  "assay_in_all_cases": "NCI tumour cell line growth inhibition, 384-well format",
  "key": {"[1]": {"test_system": "HCT-116 colon"}, "[2]": {"test_system": "PC-3 prostate"}, "[3]": {"test_system": "SW-620 colon"}, "[4]": {"test_system": "SN12C renal"}, "[5]": {"test_system": "SR leukemia"}, "[6]": {"test_system": "TK-10 renal"}, "[7]": {"test_system": "MALME-3M melanoma"}, "[8]": {"test_system": "SK-MEL-28 melanoma"}, "[9]": {"test_system": "MCF7 breast"}, "[10]": {"test_system": "SK-MEL-2 melanoma"}, "[11]": {"test_system": "HCT-15 colon"}, "[12]": {"test_system": "MOLT-4 leukemia"}, "[13]": {"test_system": "HL-60(TB) leukemia"}},
  "note": "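GI50: concentration for 50% inhibition of growth. TGI: total growth inhibition.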",
  "data": [
    {"molecule": "N=C(N)c1ccc2nc(-c3cc(CC(=O)N[C@@H](CC(=O)O)C(=O)O)cc(-c4cc(S(N)(=O)=O)ccc4O)c3O)[nH]c2c1", "values": [
      {"measurement": "GI50", "setting": "[1]", "result": "> 100", "unit": "µM"},
      {"measurement": "TGI", "setting": "[1]", "result": "> 100", "unit": "µM"},
      {"measurement": "GI50", "setting": "[2]", "result": "> 100", "unit": "µM"},
      {"measurement": "TGI", "setting": "[2]", "result": "> 100", "unit": "µM"},
      {"measurement": "GI50", "setting": "[3]", "result": "> 100", "unit": "µM"},
      {"measurement": "TGI", "setting": "[3]", "result": "> 100", "unit": "µM"},
      {"measurement": "GI50", "setting": "[4]", "result": "> 100", "unit": "µM"},
      {"measurement": "TGI", "setting": "[4]", "result": "> 100", "unit": "µM"},
      {"measurement": "GI50", "setting": "[5]", "result": "> 100", "unit": "µM"},
      {"measurement": "TGI", "setting": "[5]", "result": "> 100", "unit": "µM"},
      {"measurement": "GI50", "setting": "[6]", "result": "> 100", "unit": "µM"},
      {"measurement": "TGI", "setting": "[6]", "result": "> 100", "unit": "µM"},
      {"measurement": "GI50", "setting": "[7]", "result": "> 100", "unit": "µM"},
      {"measurement": "TGI", "setting": "[7]", "result": "> 100", "unit": "µM"},
      {"measurement": "GI50", "setting": "[8]", "result": "> 100", "unit": "µM"},
      {"measurement": "TGI", "setting": "[8]", "result": "> 100", "unit": "µM"},
      {"measurement": "GI50", "setting": "[9]", "result": "> 71.5", "unit": "µM"},
      {"measurement": "TGI", "setting": "[9]", "result": "> 100", "unit": "µM"},
      {"measurement": "GI50", "setting": "[10]", "result": "> 100", "unit": "µM"},
      {"measurement": "TGI", "setting": "[10]", "result": "> 100", "unit": "µM"},
      {"measurement": "GI50", "setting": "[11]", "result": "> 100", "unit": "µM"},
      {"measurement": "TGI", "setting": "[11]", "result": "> 100", "unit": "µM"},
      {"measurement": "GI50", "setting": "[12]", "result": "> 100", "unit": "µM"},
      {"measurement": "TGI", "setting": "[12]", "result": "> 100", "unit": "µM"},
      {"measurement": "GI50", "setting": "[13]", "result": "> 100", "unit": "µM"},
      {"measurement": "TGI", "setting": "[13]", "result": "> 100", "unit": "µM"}
    ]}
  ]
}
